Experimental data taken from patent US20070225334A1, “Methods for treating cognitive and other disorders” (Wyeth, priority 2006, published 2007).

How the values were obtained:
5-HT2C receptor [1] = molecular target: T1, 5-HT2C receptor (Homo sapiens, UniProt P28335); experiment: 5-HT2C receptor affinity; format: binding
T1 sequence (P28335 33-458): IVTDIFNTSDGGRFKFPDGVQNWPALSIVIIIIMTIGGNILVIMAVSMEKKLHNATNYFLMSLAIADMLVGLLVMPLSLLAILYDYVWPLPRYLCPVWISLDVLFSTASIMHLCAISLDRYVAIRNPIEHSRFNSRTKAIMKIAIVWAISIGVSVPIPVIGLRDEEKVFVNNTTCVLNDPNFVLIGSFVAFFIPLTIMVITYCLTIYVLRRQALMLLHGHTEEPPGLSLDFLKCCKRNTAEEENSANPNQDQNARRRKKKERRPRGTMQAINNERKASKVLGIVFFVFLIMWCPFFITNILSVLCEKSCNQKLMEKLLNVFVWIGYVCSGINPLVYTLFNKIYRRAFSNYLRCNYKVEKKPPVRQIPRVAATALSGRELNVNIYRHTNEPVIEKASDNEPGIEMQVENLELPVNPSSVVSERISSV

5-HT2C receptor [2] = molecular target: T1, 5-HT2C receptor; experiment: 5-HT2C receptor agonist function; format: biochemical
[3] = system: schedule-induced polydipsia; experiment: Schedule-induced polydipsia model of obsessive-compulsive disorder (adjunctive drinking); format: in vivo, Sprague-Dawley rat; conditions: for reduction in adjunctive drinking behavior: relative to vehicle
From the text: In this model, a food pellet is delivered once per minute for a two-hour period. A water bottle is available in the test chamber. […] This excessive manifestation of a normal behavior (drinking) provides face validity to the model. […] Most importantly, clinically effective drugs for the treatment of obsessive-compulsive disorder decrease adjunctive drinking.
Male Sprague-Dawley rats weighing 300-400 grams were individually housed in an AALAC-accredited facility that was maintained on a 12-h light dark cycle (lights on at 0600 h) with freely available water. All in vivo studies were performed in accordance to the Guide for the Care and Use of Laboratory Animals as adopted and promulgated by the National Institutes of Health (Pub. 85-23, 1985). Rats were maintained at approximately 85% of their free-feeding body weights by food presented during the session and by post-session feeding.
Procedure Experimental sessions were conducted in a standard operant conditioning chamber placed inside a ventilated sound-attenuating shell that was equipped with white noise to mask extraneous sounds (Med Associates, Georgia, Vt.). A food trough was on the front panel of the chamber and a water bottle was mounted to the side panel. Experimental sessions were 120 minutes in duration and were conducted five days per week (Monday through Friday). Test sessions occurred generally on Tuesdays and Fridays, with the remaining days serving as control days. For each session, one food pellet (Bioserv, 45 mg precision dustless pellet) was dispensed into the food trough each minute for the duration of the session, for a total of 120 pellets being delivered. This schedule of food presentation elicits an abnormal adjunctive drinking behavior in rats such that they consume and exaggerated volume of water, approximately 5-10 fold larger than under normal conditions. Compound 1 or vehicle was administered immediately prior to the start of the experimental session. Each dose of Compound 1 was tested on a separate day, with the appropriate control sessions being conducted prior to each test. At the end of the test session, the volume of water and the number of food pellets that each rat consumed were measured.
(§1) Water consumption was calculated and expressed as percent (%) of vehicle control intake. Results were analyzed using a one-way ANOVA with least significant difference (LSD) post-hoc test. […] Where appropriate, ED50 values (dose that decreases adjunctive water intake to 50% of vehicle values) were calculated using a logistic dose response analysis.

[4] = system: normal eating and drinking behavior; experiment: Modified procedure for normal feeding and drinking behavior (120 pellets at session start); format: in vivo, Sprague-Dawley rat; conditions: 1 mg/kg
Method: In order to determine if Compound 1 would affect normal eating and drinking behavior, Compound 1 or vehicle was tested under modified conditions. Under these modified conditions, 120 food pellets were placed into the food trough at the beginning of the session and no further food pellets were dispensed. At the end of the test session, the volume of water and the number of food pellets consumed by each rat were measured as described earlier.
as §1

[5] = system: acetylcholine in medial prefrontal cortex; experiment: In vivo microdialysis, acetylcholine in medial prefrontal cortex; parameters: species or system Sprague-Dawley rat; conditions: 1.7 mg/kg s.c.
Method: Animals: Adult male Sprague-Dawley rats (Charles River, Wilmington, Mass.) weighing 280-350 g at the time of surgery were used for all microdialysis experiments. Adult male Long-Evans rats (Charles River, Wilmington, Mass.) weighing 180-220 g were used for NOR studies. Rats were housed individually for recognition memory studies. All animals had free access to food and water and were group housed in the AAALAC-accredited facility that was maintained on a 12 h light dark cycle (lights on at 0600 h) for at least 1 week prior to surgery or behavioral testing. All in vivo studies were performed in accordance to the ‘Guide for the Care and Use of Laboratory Animals’ as adopted and promulgated by the National Institutes of Health (Pub. 85-23, 1985). […]
Analysis of Acetylcholine Dialysate levels of acetylcholine were determined using LC/MS/MS. […]
Acetylcholine data were quantified using peak area against an internal standard and acquired using Masslynx software (Micromass, Beverly, Mass., USA). The mean of the concentration of baseline samples was calculated and denoted as 0%. All sample values were expressed as a percent change from this pre-injection mean baseline value (% change from baseline). Neurochemical data, excluding pre-injection values, were analyzed by a two-way analysis of variance (ANOVA) with repeated measures (time). […]

[6] = system: extracellular glutamate levels in the rat mPFC; experiment: In vivo microdialysis, extracellular glutamate in mPFC; parameters: species or system Sprague-Dawley rat; conditions: 1.7 mg/kg s.c., acute, F(1,15)=4.76, P=0.0454 vs vehicle
Method: Animals: Adult male Sprague-Dawley rats (Charles River, Wilmington, Mass.) weighing 280-350 g at the time of surgery were used for all microdialysis experiments. Adult male Long-Evans rats (Charles River, Wilmington, Mass.) weighing 180-220 g were used for NOR studies. Rats were housed individually for recognition memory studies. All animals had free access to food and water and were group housed in the AAALAC-accredited facility that was maintained on a 12 h light dark cycle (lights on at 0600 h) for at least 1 week prior to surgery or behavioral testing. All in vivo studies were performed in accordance to the ‘Guide for the Care and Use of Laboratory Animals’ as adopted and promulgated by the National Institutes of Health (Pub. 85-23, 1985).
Stereotaxic Surgery Following induction of anesthesia with 3% halothane (Fluothane; Zeneca, Cheshire, UK), animals were secured in a stereotaxic frame with ear and incisor bars (David Kopf, Tujunga, Calif.). Anesthesia was maintained by continuous administration of halothane (1-2%) while a microdialysis guide cannula (CMA/12, CMA Microdialysis, Stockholm, Sweden) was implanted above the dorsal hippocampus (AP: −4.3 mm ML: −2.6 mm DV: −2.1 mm) or the medial prefrontal cortex (AP: 3.2 mm ML: −0.6 mm DV: −3.8 mm). […]
Dialysate (10 μL) was collected and analyzed for extracellular glutamate concentrations. […]

Structure (SMILES): NC[C@H]1Cc2cc(F)cc(-c3c(Cl)cccc3Cl)c2O1 (stereo in doubt) [Compound 1, (7-(2,6-dichlorophenyl)-5-fluoro-2,3-dihydrobenzofuran-2-yl)methanamine]
- Ki (5-HT2C receptor [1]): 0.37 nM
- EC50 (5-HT2C receptor [2]): 0.4 nM
- agonist character at the 5-HT2C receptor (5-HT2C receptor [2]): potent full agonist
- reduction in adjunctive drinking behavior ([3]; 0.3 mg/kg i.p., p=0.003): 45%
- rats not eating all food pellets presented ([3]; 1 mg/kg i.p., schedule-induced polydipsia session): one of the six rats did not eat all of the food pellets presented
- reduction in adjunctive drinking behavior ([3]; 1 mg/kg i.p., p<0.0001): 81%
- effect on adjunctive drinking behavior ([3]; 0.1-1 mg/kg, i.p., acute, F(3,20)=16.91, p<0.0001): dose-dependent decrease
- ED50 ([3]; Rattus norvegicus, ip, 95% CI: 0.22-0.57 mg/kg, read-out: ED50 (dose that decreases adjunctive water intake to 50% of vehicle values)): 0.36 mg/kg
- decrease in water consumption relative to vehicle controls ([4]; modified procedure (normal drinking)): 26%
- rats failing to eat all food pellets presented ([4]; modified procedure (normal feeding)): two of the six rats tested failed to eat all of the food pellets presented
- maximal increase in acetylcholine with respect to baseline [5]: 48%
- extracellular glutamate levels [6]: 132%
